Among the data in PubChem BioAssay (NCI) are TGI and GI50 values, retold here.

Common to all, as to experiment: DTP human tumour cell line panel, 48 h
For test [1], the system named is PC-3 prostate.
Test [2] has as its system A549 NSCLC.
The test system of test [3] is T-47D breast.
Test [4] concerns TK-10 renal.
Test [5] concerns EKVX NSCLC.
Test [6] relates to OVCAR-8 ovarian.
In test [7] the test system is SF-539 CNS.
Test [8] relates to CCRF-CEM leukemia.
Test [9] concerns UACC-257 melanoma.
The subject of test [10] is MDA-MB-435.

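Tested at 5 concentrations; 48 h exposure; 96-well plates; endpoints linearly interpolated, else capped at highest concentration. Abbreviation: GI50, concentration required for 50% inhibition of growth. TGI: concentration producing complete growth inhibition.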

What is called TGI is the concentration at which net growth stops. Higher therefore signals less potent growth arrest. Consider `COC(c1ccsc1)C(C#N)(C#N)N=Cc1ccsc1` (stereo unspecified), for which the TGI in test [1] was 27.5 µM; in test [2] it was above 100 µM; in test [3], 67.7 µM; in [4] it was 36.2 µM; in test [5], 32.9 µM; in test [6], 49.9 µM. Also, the concentration for total growth inhibition (TGI) in test [7] is 30.4 µM; in test [8], 39 µM; in test [9], 29.6 µM; in test [10], 29.6 µM.

Regarding `COc1ccc(C2SC(N)=Nc3c2c(C)nn3C(=O)c2ccncc2)cc1` (stereo unspecified), the total growth inhibition concentration (TGI) in test [1], in [2], in test [3], in [4], in test [5] and in test [6] was above 100 µM each time. Moreover, the TGI in [7], in test [8], in [9] and in test [10] was above 100 µM each time.

Usually GI50 stands for the concentration giving 50% growth inhibition. As to `C(=N\Nc1ncc(-c2cc3cc4c(cc3o2)OCO4)s1)/c1c[nH]c2ccccc12`, the GI50 was 0.519 µM in [1]; 0.487 µM in [2]; 2.09 µM in test [3]; 2.4 µM in test [4]; 1.27 µM in [5]; 1.65 µM in [6]. The GI50 in [7] is 0.669 µM; in test [8], 0.392 µM; in [9] it was 2.57 µM; in test [10], 1.74 µM. In addition, the TGI in test [1] is 6.2 µM; in test [2], 3.1 µM; in [3] it was above 100 µM; in test [4] it was 5.59 µM; in [5], 6.44 µM; in test [6] it was above 100 µM. In addition, the TGI was 1.98 µM in test [7], above 100 µM in test [8], 7.77 µM in test [9] and 4.44 µM in test [10].

For `COc1c2occc2c(OC)c2c(=O)c(S(=O)(=O)NC(=O)Nc3ccc(Cl)cc3)coc12`, the total growth inhibition concentration (TGI) in [1], in test [2], in test [3], in test [4], in test [5] and in test [6] was above 10 µM throughout. Also, the TGI in test [7], in test [8], in test [9] and in test [10] was above 10 µM in each case.

Regarding `N/C(=N\N=C\c1ccc2c(c1)OCO2)NO`, the TGI was above 100 µM in test [1]; above 100 µM in test [2]; above 100 µM in test [3]; above 100 µM in test [4]; above 100 µM in test [5]; 40 µM in test [6]. In addition, the TGI in test [7] was 56.5 µM; in test [8], 51.1 µM; in test [9] it was above 100 µM; in [10] it was above 100 µM.

Take `Cc1cccc2c1C(=O)C1(Cc3ccccc3C1=O)C2` (stereo unspecified): the TGI in test [1], in test [2], in [3], in [4], in [5] and in test [6] was above 100 µM each time. The TGI in test [7], in test [8], in test [9] and in [10] was above 100 µM in each case.

For the molecule `CC1(C)C2CCC1(CS(=O)(=O)Nc1ccccc1)C(=O)C2` (stereo unspecified), the TGI in [1], in test [2], in test [3], in [4], in test [5] and in test [6] was above 100 µM in each case. Besides, the TGI in test [7], in test [8], in [9] and in [10] was above 100 µM throughout.

For the molecule `CCNC(=S)N/N=C/c1cc(OC)ccc1O`, the TGI in test [1], in test [2], in [3], in test [4], in test [5] and in test [6] was above 100 µM throughout. In addition, the TGI in [7], in test [8], in [9] and in [10] was above 100 µM in each case.

For `CCSSCS(C)(=O)=O`, the TGI in [1] is above 100 µM; in test [2] it was above 100 µM; in [3], above 100 µM; in test [4], above 100 µM; in test [5], above 100 µM; in test [6], 57.4 µM. Also, the TGI in [7] was 29.5 µM; in test [8], above 100 µM; in test [9], 57.1 µM; in test [10] it was above 100 µM.

In the case of `C/C(O)=C/c1nc2ccccc2nc1/C=C(/C)O`, the TGI in test [1] is above 100 µM; in test [2], 51.3 µM; in test [3], 36.9 µM; in test [4] it was 42.2 µM; in [5] it was 71.5 µM; in [6] it was 83.3 µM. The TGI was found to be 99.3 µM in test [7], 45.9 µM in test [8], 41 µM in test [9] and 59.8 µM in test [10].

In the case of `CC(C)(C)c1cc(C(O)(C(=O)O)C(=O)O)cc(C(C)(C)C)c1O`, the TGI in [1], in test [2], in test [3], in [4], in test [5] and in [6] was above 100 µM each time. Further, the concentration for total growth inhibition (TGI) in test [7], in [8], in [9] and in [10] was above 100 µM throughout.

As to `[O-][n+]1onc2c3nn(-c4ccccc4)nc3ccc21`, the TGI in test [1] was above 100 µM; in [2] it was above 100 µM; in test [3], 32.4 µM; in test [4], above 88.7 µM; in test [5], above 100 µM; in test [6], above 100 µM. Also, the TGI was above 100 µM in [7], above 100 µM in test [8], above 92.2 µM in [9] and above 100 µM in test [10].

`COc1ccc2c(c1)OCC1(O)Cc3ccccc3OC21` (stereo unspecified): the TGI in test [1], in [2], in [3], in [4], in test [5] and in test [6] was above 100 µM each time. The TGI in [7], in [8], in test [9] and in test [10] was above 100 µM in each case.

For `C=CCOc1ccc(C2c3c([nH][nH]c3=O)CC(O)(OCC)C2C(=O)OCC)cc1OC` (stereo unspecified), the TGI in test [1], in test [2], in test [3], in test [4], in test [5] and in test [6] was above 100 µM throughout. The concentration for total growth inhibition (TGI) in test [7], in [8], in test [9] and in test [10] was above 100 µM each time.

`CC1(C)O[C@H](C(=O)O)[C@@H](C(=O)O)O1`: the concentration for total growth inhibition (TGI) in test [1], in [2], in [3], in [4], in test [5] and in [6] was above 100 µM throughout. Also, the TGI in [7], in test [8], in [9] and in test [10] was above 100 µM throughout.

For the molecule `CC/C(Cl)=N\OC(=O)Nc1ccc(OC)cc1`, the total growth inhibition concentration (TGI) in test [1] was found to be 29.5 µM; in test [2], 32.6 µM; in [3], 13.8 µM; in test [4], 18.2 µM; in [5], 11.9 µM; in [6], 37.4 µM. Also, the TGI stood at 9.51 µM in test [7], 4.97 µM in test [8], 30.2 µM in test [9] and 25.8 µM in [10].

As to `O=C(O)Cc1ccc(Oc2nc3ccccc3nc2-c2cccs2)cc1`, the TGI in [1] was above 100 µM; in test [2] it was above 100 µM; in test [3], 63.6 µM; in test [4], above 100 µM; in [5], above 100 µM; in test [6] it was above 100 µM. Also, the TGI in test [7], in test [8], in [9] and in test [10] was above 100 µM in each case.

`O=C(CCc1cccc(O)c1)NCCc1cccc(O)c1`: the TGI in test [1], in test [2], in test [3], in test [4], in test [5] and in test [6] was above 100 µM throughout. Also, the TGI in [7], in test [8], in [9] and in test [10] was above 100 µM throughout.

For the molecule `Brc1ccc2c(-c3nc(-c4c[nH]c5ccccc45)cs3)c[nH]c2c1`, the TGI was above 91.2 µM in [1]; 74.6 µM in [2]; above 100 µM in [3]; 45.8 µM in test [4]; above 100 µM in [5]; above 100 µM in [6]. Also, the TGI in [7] was 69.5 µM; in [8], above 100 µM; in [9], above 100 µM; in test [10] it was above 100 µM.

With `Oc1ccc2c(c1)-c1c(c3cc(O)ccc3n1CCN1CCOCC1)CC2`, the TGI in [1] is 54.4 µM; in [2] it was above 100 µM; in [3], above 100 µM; in [4], above 100 µM; in [5], above 100 µM; in test [6] it was 86.8 µM. Further, the TGI in [7] is 76 µM; in [8] it was 68.7 µM; in test [9], above 100 µM; in test [10], 48.8 µM.

On to `COCn1c2ccc(OC(C)=O)cc2c2c(=O)oc(C)nc21`, for which the TGI in test [1], in [2], in test [3], in test [4], in [5] and in [6] was above 100 µM throughout. In addition, the TGI in test [7], in test [8], in [9] and in test [10] was above 100 µM throughout.

For `Cc1c(-c2ccccc2)c(C#N)c2nnn(-c3ccccc3)c(=O)n12`, the total growth inhibition concentration (TGI) in test [1], in [2], in test [3], in test [4], in test [5] and in test [6] was above 100 µM in each case. For the same molecule, the TGI in test [7], in test [8], in test [9] and in [10] was above 100 µM in each case.

For the molecule `O=S(=O)(c1ccccc1)n1c(C(O)c2ccncc2)cc2ccccc21` (stereo unspecified), the total growth inhibition concentration (TGI) in test [1] was above 100 µM; in test [2], above 100 µM; in [3] it was above 100 µM; in test [4], 79.7 µM; in [5], above 100 µM; in test [6] it was above 100 µM. Moreover, the TGI in test [7] is above 100 µM; in test [8], above 100 µM; in [9], 38.9 µM; in [10], above 100 µM.

Take `Cc1oc2nc1C(=O)NCc1nc(cs1)C(=O)N[C@H](C(C)C)c1nc(cs1)C(=O)N[C@H]2C`: the TGI in test [1], in [2], in [3], in [5], in test [6] and in test [7] was above 100 µM each time. In addition, the TGI in [8], in test [9] and in [10] was above 100 µM in each case.

As for `Cc1cc2c(cc1-c1cc3c(cc1C)C(C(C)C)=C(O)C(=O)/C3=C\Nc1nc(-c3ccccc3)cs1)/C(=C/Nc1nc(-c3ccccc3)cs1)C(=O)C(O)=C2C(C)C`, the TGI in test [1] was 37.3 µM; in test [2] it was 57.2 µM; in test [3], above 100 µM; in [5], 52.1 µM; in [6], 77 µM; in test [7] it was 43.9 µM. Moreover, the figures for the TGI in test [8], in test [9] and in [10] were 64.4 µM, 47 µM and 30.6 µM, respectively.

On to `CC(C)CC(=O)NC(Nc1ccc(S(=O)(=O)Nc2ncccn2)cc1)(C(F)(F)F)C(F)(F)F`, for which the TGI in test [1], in test [2], in test [3], in test [5], in test [6] and in [7] was above 100 µM each time. The TGI in test [8], in [9] and in test [10] was above 100 µM throughout.

With `CCNc1nc(N)c(C(=O)c2ccc(Cl)cc2)s1`, the TGI is above 100 µM in [1]; 70.2 µM in [2]; above 100 µM in [3]; 54.4 µM in test [4]; 45.5 µM in [5]; above 100 µM in [7]. Further, the TGI in test [8] was 22.6 µM; in test [9] it was above 100 µM; in [10], above 100 µM.
